18 compounds from patent US10179771B2 (GALAPAGOS NV, priority 2014, dated 2019) can be followed below.

One may read the pIC50 as the negative decadic logarithm of the IC50, by convention in mol/L.

pIC50: −log10 of the molar value.

The target of experiment [1] is T1, Recombinant human TYK2 catalytic domain (Homo sapiens, UniProt P29597).
T1 construct: Recombinant human TYK2 catalytic domain (amino acids 871-1187; catalog number 08-147); purchased Carna biosciences 08-147
T1 sequence (P29597 871-1187): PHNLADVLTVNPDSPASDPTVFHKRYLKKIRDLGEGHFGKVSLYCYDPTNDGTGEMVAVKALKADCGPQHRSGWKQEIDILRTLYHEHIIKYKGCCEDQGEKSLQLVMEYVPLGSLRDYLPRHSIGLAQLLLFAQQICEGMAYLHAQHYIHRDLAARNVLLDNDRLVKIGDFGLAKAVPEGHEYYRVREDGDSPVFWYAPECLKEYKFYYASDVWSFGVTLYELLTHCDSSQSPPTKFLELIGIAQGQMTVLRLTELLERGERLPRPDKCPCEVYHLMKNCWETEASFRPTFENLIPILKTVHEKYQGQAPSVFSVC
Kind of experiment: TYK2 inhibition assay. Format: biochemical. The protocol:
Recombinant human TYK2 catalytic domain (amino acids 871-1187; catalog number 08-147) was purchased from Carna biosciences. 5 ng of TYK2 was incubated with 12.5 μg polyGT substrate (Sigma catalog number P0275) in kinase reaction buffer (25 mM Hepes pH 7.2, 50 mM NaCl, 0.5 mM EDTA, 1 mM DTT, 5 mM MnCl2, 10 mM MgCl2, 0.1% Brij-35, 0.1 μM non-radioactive ATP, 0.125 μCi ^33P-gamma-ATP (GE Healthcare, catalog number AH9968) final concentrations) with or without 5 μL containing test compound or vehicle (DMSO, 1% final concentration), in a total volume of 25 μL, in a polypropylene 96-well plate (Greiner, V-bottom). After 90 min at 30° C., reactions were stopped by adding 25 μL/well of 150 mM phosphoric acid. All of the terminated kinase reaction was transferred to prewashed (75 mM phosphoric acid) 96 well filter plates (Perkin Elmer catalog number 6005177) using a cell harvester (Perkin Elmer). Plates were washed 6 times with 300 μL per well of a 75 mM phosphoric acid solution and the bottom of the plates was sealed. 40 μL/well of Microscint-20 was added, the top of the plates was sealed and readout was performed using the Topcount (Perkin Elmer). Kinase activity was calculated by subtracting counts per min (cpm) obtained in the presence of a positive control inhibitor (10 μM staurosporine) from cpm obtained in the presence of vehicle. The ability of a test compound to inhibit this activity was determined as: Percentage inhibition=((cpm determined for sample with test compound present−cpm determined for sample with positive control inhibitor) divided by (cpm determined in the presence of vehicle−cpm determined for sample with positive control inhibitor))*100.
Dose dilution series were prepared for the compounds enabling the testing of dose-response effects in the TYK2 assay and the calculation of the IC50 for each compound. Each compound was routinely tested at concentration of 20 μM followed by a 1/3 serial dilution, 8 points (20 μM-6.67 μM-2.22 μM-740 nM-247 nM-82 nM-27 nM-9 nM) in a final concentration of 1% DMSO. When potency of compound series increased, more dilutions were prepared and/or the top concentration was lowered (e.g. 5 μM, 1 μM).

For experiment [2], the target named is T2, Recombinant human JAK3 catalytic domain (Homo sapiens, UniProt P52333).
T2 construct: Recombinant human JAK3 catalytic domain (amino acids 781-1124; catalog number PV3855); purchased Invitrogen PV3855
T2 sequence (P52333 781-1124): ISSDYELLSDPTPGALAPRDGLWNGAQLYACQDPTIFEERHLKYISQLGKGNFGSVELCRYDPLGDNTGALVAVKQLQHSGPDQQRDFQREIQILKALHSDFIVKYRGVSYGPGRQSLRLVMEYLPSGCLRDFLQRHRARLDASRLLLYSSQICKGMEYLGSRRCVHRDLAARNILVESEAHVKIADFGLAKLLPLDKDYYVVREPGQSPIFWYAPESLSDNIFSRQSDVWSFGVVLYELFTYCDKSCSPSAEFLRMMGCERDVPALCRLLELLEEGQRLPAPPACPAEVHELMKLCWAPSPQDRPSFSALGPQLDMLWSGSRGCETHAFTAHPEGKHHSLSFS
Kind of experiment: JAK3 inhibition assay. The class given is biochemical. The method, then:
Recombinant human JAK3 catalytic domain (amino acids 781-1124; catalog number PV3855) was purchased from Invitrogen. 0.5 ng JAK3 protein was incubated with 2.5 μg polyGT substrate (Sigma catalog number P0275) in kinase reaction buffer (25 mM Tris pH 7.5, 0.5 mM EGTA, 10 mM MgCl2, 2.5 mM DTT, 0.5 mM Na3VO4, 5 mM b-glycerolphosphate, 0.01% Triton X-100, 1 μM non-radioactive ATP, […] ^33P-gamma-ATP (GE Healthcare, catalog number AH9968) final concentrations) with or without 5 μL containing test compound or vehicle (DMSO, 1% final concentration), in a total volume of 25 μL, in a polypropylene 96-well plate (Greiner, V-bottom). After 45 min at 30° C., reactions were stopped by adding 25 μL/well of 150 mM phosphoric acid. All of the terminated kinase reaction was transferred to prewashed (75 mM phosphoric acid) 96 well filter plates (Perkin Elmer catalog number 6005177) using a cell harvester (Perkin Elmer). Plates were washed 6 times with 300 μL per well of a 75 mM phosphoric acid solution and the bottom of the plates was sealed. 40 μL/well of Microscint-20 was added, the top of the plates was sealed and readout was performed using the Topcount (Perkin Elmer). Kinase activity was calculated by subtracting counts per min (cpm) obtained in the presence of a positive control inhibitor (10 μM staurosporine) from cpm obtained in the presence of vehicle. The ability of a test compound to inhibit this activity was determined as:
[formula] • RFU test compound=RFU determined for sample with test compound present • RFU control=RFU determined for sample with positive control inhibitor • RFU vehicle=RFU determined in the presence of vehicle
Dose dilution series were prepared for the compounds enabling the testing of dose-response effects in the JAK3 assay and the calculation of the IC50 for each compound. Each compound was routinely tested at concentration of 20 μM followed by a 1/5 serial dilution, 10 points in a final concentration of 1% DMSO. When potency of compound series increased, more dilutions were prepared and/or the top concentration was lowered (e.g. 5 μM, 1 μM).

Setting [3] is: Illustrative Compounds of the invention (Table XI).
[4] abbreviates: Illustrative Compounds of the invention (Table IX).
[5] abbreviates: Comparative Compounds (Table XII).
[6] abbreviates: Comparative Compounds (Table X).

As for `CCc1cc(C#N)ncc1N(C)c1cc(NC(=O)C2CC2)c2ncn(C)c2c1` [Cpd 1, N-(6-((6-cyano-4-ethylpyridin-3-yl)(methyl)amino)-1-methyl-1H-benzo[d]imidazol-4-yl)cyclopropanecarboxamide], the pIC50 in experiment [1] (setting [3]) is 7.30 to 10.00; in experiment [2] (setting [4]), 7.00 to 7.30.

For `Cc1cc(F)ncc1N(C)c1cc(NC(=O)[C@H]2C[C@H]2F)c2ncn(C)c2c1` [Cpd 12, (1R,2R)-2-fluoro-N-[6-[(6-fluoro-4-methyl-3-pyridyl)-methyl-amino]-1-methyl-benzimidazol-4-yl]cyclopropanecarboxamide], the negative logarithm of the IC50 (pIC50) in experiment [1] (setting [3]) was 7.30 to 10.00; in experiment [2] (setting [4]), 6.30 to 7.00.

Take `Cc1cc(C#N)ncc1Oc1cc(NC(=O)N2CCOCC2)c2ncn(C)c2c1` [Cpd 37, N-[6-[(6-cyano-4-methyl-3-pyridyl)oxy]-1-methyl-benzimidazol-4-yl]morpholine-4-carboxamide]: the negative logarithm of the IC50 (pIC50) in experiment [1] (setting [3]) and in experiment [2] (setting [4]) was below 6.30 each time.

For `CCc1cc(C#N)cc(F)c1N(C)c1cc(NC(=O)OC)c2ncn(C)c2c1` [Cpd 5, methyl 6-((4-cyano-2-ethyl-6-fluorophenyl)(methyl)amino)-1-methyl-1H-benzo[d]imidazol-4-ylcarbamate], the pIC50 is 7.30 to 10.00 in experiment [1] (setting [3]) and 7.00 to 7.30 in experiment [2] (setting [4]).

Take `CN(c1cc(NC(=O)[C@H]2C[C@H]2F)c2ncn(C)c2c1)c1ccc(S(C)(=O)=O)cc1F` [Cpd 17, (1R,2R)-2-fluoro-N-[6-(2-fluoro-N-methyl-4-methylsulfonyl-anilino)-1-methyl-benzimidazol-4-yl]cyclopropanecarboxamide]: the figures for the pIC50 in experiment [1] (setting [3]) and in experiment [2] (setting [4]) were 6.30 to 7.00 and below 6.30, respectively.

`CN(c1cc(NC(=O)[C@H]2C[C@H]2F)c2ncn(C)c2c1)c1ccc(C#N)cc1F` [Cpd 15, (1R,2R)-N-[6-(4-cyano-2-fluoro-N-methyl-anilino)-1-methyl-benzimidazol-4-yl]-2-fluoro-cyclopropanecarboxamide]: the pIC50 in experiment [1] (setting [3]) is 7.30 to 10.00; in experiment [2] (setting [4]), below 6.30.

On to `CN(c1ccc2ncn(C)c2c1)c1ccc(C#N)cc1F` [C, 3-fluoro-4-[methyl-(3-methylbenzimidazol-5-yl)amino]benzonitrile, reference compound], for which the pIC50 in experiment [1] (setting [5]) and in experiment [2] (setting [6]) was below 6.30 each time.

As to `Cc1cc(C#N)ncc1N(C)c1cc(NC(=O)[C@H]2C[C@H]2F)c2ncn(C)c2c1` [Cpd 9, (1R,2R)-N-(6-((6-cyano-4-methylpyridin-3-yl)(methyl)amino)-1-methyl-1H-benzo[d]imidazol-4-yl)-2-fluorocyclopropanecarboxamide], the negative logarithm of the IC50 (pIC50) in experiment [1] (setting [3]) was 7.30 to 10.00; in experiment [2] (setting [4]), 6.30 to 7.00.

Regarding `CNC(=O)Nc1cc(Oc2cnc(C#N)cc2C)cc2c1ncn2C`, the pIC50 in experiment [1] (setting [3]) was 7.30 to 10.00; in experiment [2] (setting [4]), 6.30 to 7.00.

Take `Cc1cc(C#N)ncc1Oc1cc(NC(=O)[C@H]2C[C@H]2F)c2ncn(C)c2c1` [Cpd 20, (1R,2R)-N-[6-[(6-cyano-4-methyl-3-pyridyl)oxy]-1-methyl-benzimidazol-4-yl]-2-fluoro-cyclopropanecarboxamide]: the pIC50 in experiment [1] (setting [3]) is 7.30 to 10.00; in experiment [2] (setting [4]), below 6.30.

Take `CCc1cc(C#N)cc(F)c1N(C)c1cc(NC(=O)[C@@H]2C[C@@H]2F)c2ncn(C)c2c1` (racemic) [Cpd 7, N-(6-((4-cyano-2-ethyl-6-fluorophenyl)(methyl)amino)-1-methyl-1H-benzo[d]imidazol-4-yl)-2-fluorocyclopropanecarboxamide (1S,2S)/(1R,2R) racemic mixture]: the pIC50 in experiment [1] (setting [3]) and in experiment [2] (setting [4]) was 7.30 to 10.00 in each case.

Regarding `CCc1cc(C(N)=O)ncc1N(C)c1cc(NC(=O)[C@H]2C[C@H]2F)c2ncn(C)c2c1` [Cpd 25, 4-ethyl-5-((4-((1R,2R)-2-fluorocyclopropanecarboxamido)-1-methyl-1H-benzo[d]imidazol-6-yl)(methyl)amino)picolinamide], the figures for the pIC50 in experiment [1] (setting [3]) and in experiment [2] (setting [4]) were 7.30 to 10.00 and 6.30 to 7.00, respectively.

With `Cc1cc(C#N)nc(F)c1N(C)c1cc(NC(=O)[C@H]2C[C@H]2F)c2ncn(C)c2c1` [Cpd 21, (1R,2R)-N-[6-[(6-cyano-2-fluoro-4-methyl-3-pyridyl)-methyl-amino]-1-methyl-benzimidazol-4-yl]-2-fluoro-cyclopropanecarboxamide], the pIC50 was 7.30 to 10.00 in experiment [1] (setting [3]) and 7.00 to 7.30 in experiment [2] (setting [4]).

Turning to `CN(c1cc2c(cn1)ncn2C)c1ccc(C#N)cc1F` [D, reference compound], the pIC50 in experiment [1] (setting [5]) and in experiment [2] (setting [6]) was below 6.30 in each case.

With `CNc1cc(Oc2cnc(C#N)cc2C)cc2c1ncn2C` [Cpd 34, 4-methyl-5-[3-methyl-7-(methylamino)benzimidazol-5-yl]oxy-pyridine-2-carbonitrile], the negative-log IC50 (pIC50) in experiment [1] (setting [3]) and in experiment [2] (setting [4]) was below 6.30 in each case.

For the compound `Cc1cc(S(C)(=O)=O)ccc1N(C)c1cc(NC(=O)[C@H]2C[C@H]2F)c2ncn(C)c2c1` [Cpd 26, (1R,2R)-N-[6-(N,2-dimethyl-4-methylsulfonyl-anilino)-1-methyl-benzimidazol-4-yl]-2-fluoro-cyclopropanecarboxamide], the pIC50 in experiment [1] (setting [3]) was 7.30 to 10.00; in experiment [2] (setting [4]) it was 6.30 to 7.00.

Turning to `CCc1cc(C#N)cc(F)c1N(C)c1cc(NC(=O)C2CC2)c2ncn(C)c2c1` [Cpd 3, N-(6-((4-cyano-2-ethyl-6-fluorophenyl)(methyl)amino)-1-methyl-1H-benzo[d]imidazol-4-yl)cyclopropanecarboxamide], the pIC50 in experiment [1] (setting [3]) and in experiment [2] (setting [4]) was 7.30 to 10.00 throughout.

On to `Cc1cc(C#N)ncc1Oc1cc(NC(=O)N2CC(O)C2)c2ncn(C)c2c1` [Cpd 36, N-[6-[(6-cyano-4-methyl-3-pyridyl)oxy]-1-methyl-benzimidazol-4-yl]-3-hydroxy-azetidine-1-carboxamide], for which the pIC50 in experiment [1] (setting [3]) and in experiment [2] (setting [4]) was below 6.30 throughout.
